Data: US20240199555A1, “APPLICATIONS OF BIASED LIGANDS OF THE SEROTONIN 5-HT7 RECEPTOR FOR THE TREATMENT OF PAIN, MULTIPLE SCLEROSIS AND THE CONTROL OF THERMOREGULATION” (Centre National de la Recherche Scientifique, priority 2021, published 2024)
Like-named read-outs stand apart in the source and are kept apart here.

Key:
C57BL/6 mice = assay: Spared Nerve Injury (SNI) neuropathic pain model, Von Frey; conditions: s.c.
Experimental: Pregabalin, vehicle or compounds solutions are subcutaneously administrated for 8 consecutive days. • (A) Mechanical response threshold after the first administration (D+10). […] Positive control animals were treated with Pregabalin (5 mg/kg, sc). Statistical differences are indicated compared to vehicle group (Two-way RM ANOVA followed by Bonferroni post-hoc test: ***p<0.001, ** p<0.01, * p<0.05). […] Positive control animals were treated with Pregabalin (5 mg/kg, sc). Statistical differences are indicated compared to vehicle group (Two-way RM ANOVA followed by Bonferroni post-hoc test: ***p<0.001, ** p<0.01, * p<0.05). […] (Two-way RM ANOVA followed by Bonferroni post-hoc test: ***p<0.001, ** p<0.01, * p<0.05)
MOA51 and Serodolin (AIC01) compounds were diluted in NDT solution (NaCl 0.9%—DMSO 20%—Tween80 5%). […] AIC01 was resuspended at 0.5 mg/mL and administrated at a ratio of 100 μl per 10 g (dose of 5 mg/kg).
Experiment starts with 8 weeks old male C57B16J mice (from Charles River). Study was performed on 40 mice (2 mice were excluded during the study due to health guidelines) divided in 4 randomized groups. • Group A: s.c. injection at 5 mg/kg of pregabalin. • Group B: s.c. injection at 0.5 mg/kg of MOA51. • Group C: s.c. injection at 5 mg/kg of Serodolin (AIC01). • Group D: s.c. injection of NDT solution (referred as Vehicle hereafter).
Compounds solutions, pregabalin and vehicle were subcutaneously administrated (100 μl/10 g) for 9 consecutive days, starting 10 days after surgery. Ligature and transection of the common peroneal and tibial distal branches of the sciatic nerve was made leaving the sural branch intact. 7 days post-surgery, a decrease of threshold response to Von Frey filaments of ipsilateral hind-paw was observed corresponding to neuropathic pain apparition (mechanical allodynia). Mechanical threshold response of mice were measured with calibrated Von Frey filaments using the up/down method. Experimenter was blind to mice treatment. Measures are performed as follow: one baseline measure before surgery, one measure at D+10, D+12, D+14, D+16 and D+18 before drug's administration, and 1 h, 2 h post-drug administration. A supplementary measure 4 h post-drug administration was performed at D+10 and D+18.
Two-way RM ANOVA (followed by Bonferroni post-hoc test) was used to analysed time course response at D+10 and D+18. Area under the curve was determined with the 1 h and 2 h post-drug administration measures to investigated tolerance of repeated administration of compounds

mouse = assay: Effect on body temperature; format: in vivo; conditions: intravenous
Source text: FIG. 13: Evaluation of the effect of Serodolin on body temperature.
FIG. 17: Evaluation of the effect of MOA51 on body temperature. Results expressed in ° C.
The time course of the effect of Serodolin on the body temperature has been evaluated in the mouse following intravenous administration.

h5-HT7R = h5-HT7R (Homo sapiens (Human), UniProt P34969); assay: cAMP accumulation (LANCE cAMP detection kit) in HEK-293 cells stably expressing h5-HT7R; format: cell-based
Chain of h5-HT7R (P34969 1-432): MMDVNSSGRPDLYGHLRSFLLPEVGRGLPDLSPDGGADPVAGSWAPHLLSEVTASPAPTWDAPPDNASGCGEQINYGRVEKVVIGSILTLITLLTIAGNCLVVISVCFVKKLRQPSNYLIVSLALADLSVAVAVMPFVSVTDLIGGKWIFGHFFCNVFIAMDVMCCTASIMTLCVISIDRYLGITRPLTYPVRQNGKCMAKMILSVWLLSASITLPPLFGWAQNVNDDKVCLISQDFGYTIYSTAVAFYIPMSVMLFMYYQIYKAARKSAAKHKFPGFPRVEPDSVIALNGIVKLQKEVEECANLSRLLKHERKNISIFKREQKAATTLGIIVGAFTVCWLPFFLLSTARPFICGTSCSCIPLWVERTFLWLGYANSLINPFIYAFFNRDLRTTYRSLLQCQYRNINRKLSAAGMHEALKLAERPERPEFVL
Experimental: (B) HEK-293 cells stably expressing h5-HT7R were stimulated with 10 nM of 5-CT and increasing concentrations of products for one hour. After cell lysis, cAMP production was quantified by a LANCE cAMP detection kit (Perkin Elmer). […] Data points represent the means±SEM from three independent experiments performed in triplicate. The EC50 and IC50 for each drug was determined using GraphPad Prism software.
cAMP accumulation was measured with a LANCE™ cAMP detection kit (Perkin-Elmer Life Sciences, Boston, MA, USA). 12 h before experiment cells were starved. Forty-eight h after transfection, cells were harvested in Hank's balanced salt solution (HBSS) containing 5 mM HEPES, 1 mM isobutylmethylxanthine (IBMX) and 0.1% BSA, PH 7.4. After centrifugation (1000×g, 5 min), cells were resuspended in the same buffer (2×10^6 per ml). The ALEXA™ fluor 647 anti-cAMP antibody solution (1 μl) was added to the cell suspension (100 μl) and 5 μl aliquots of the mixture were dispensed in white 384-well microtiter plates (Optiplate, Perkin Elmer). The cells were then stimulated with different drugs. After 1 h incubation at room temperature in the dark, lysis buffer (0.35% Triton X-100, 10 mM CaCl2, 50 mM HEPES) containing LANCE EU-W8044 labeled streptavidin and biotinylated-cAMP was added to the cells (10 μL per well). After 2 h incubation at room temperature in the dark, the plates were read on a VictorV™ microplate reader (Perkin-Elmer Life Sciences). Concentration/response curves were analyzed using Prism 4 software.
HEK-293 fibroblast stably expressing 5-HT7 receptor were used to compare the effect of different 5-HT7R ligands on the classical Gαs-mediated activation of AC pathway. It was decided to evaluate the lead compounds from two series of ligands, Serodolin and MOA-51 (FIG. 1A).

With O=c1[nH]c2ccccc2n1CN1CCN(c2ccc(F)cc2)CC1 [Serodolin] the “tolerance after repetitive administration (AUC)” value (C57BL/6 mice; 9 consecutive days) was “didn't present any tolerance effect after repetitive administration”, the “mechanical response threshold vs vehicle” value (C57BL/6 mice; first (D+10) and last (D+18) administration, 1 h and 2 h) was “significant increase of the mechanical threshold response” and the “decrease in body temperature, Emax” value (mouse; 1 mg/kg, at 30 min) was −2.9 °C. For the same compound, the “decrease in body temperature, Emax” value (mouse; 3 mg/kg, at 30 min) was −3.6 °C, the “decrease in body temperature, Emax” value (mouse; 10 mg/kg, at 60 min) was −7.9 °C and the IC50 (h5-HT7R; 10 nM of 5-CT, one hour, read-out: IC50, decrease of the 5-CT induced cAMP accumulation (antagonist)) was 5 ± 2 nM. For the same compound, the “inhibition of cAMP production when tested alone (inverse agonist effect)” value (h5-HT7R; tested alone) was “around 75%” and the IC50 (h5-HT7R; tested alone, read-out: IC50, inverse agonist effect on cAMP response) was 14 nM.
